Laboratory results reported in US20220340976A1, “RAPID PREDICTION OF DRUG RESPONSIVENESS” (THE BROAD INSTITUTE, INC., priority 2019, published 2022).
“Also recorded” adds a separate entry of the source.

What was measured:
[1] = system: pools of well-characterized cancer cell lines; assay: MIX-Seq: scRNA-seq transcriptional response profiling of drug-treated cell line pools; format: cell-based, human
Experimental: Cell line pools were made in sets of 25 cell lines. These 25 cell line pools were chosen based on doubling time and were grown in RPMI in the absence of phenol red and with 10% FBS. Cell lines were then washed with 10 mLs of PBS, and trypsinized with 1 mL trypsin which was then removed. Ten mLs of RPMI media were added to the cells post trypsinization and resuspended. Cells were then counted by a Nexcelom cellometer using 10 uL of cell suspension and 10 ul of Trypan blue. Equal numbers of cells per cell line were mixed together and spun down at 1,250 RPM for 5 minutes. Media was aspirated and the cells were resuspended in Sigma Cell Freezing media and frozen in 1 mL aliquots. This process was repeated for all of the 25 cell line pools. For MIX-Seq experiments involving larger pools, multiple 25 cell line pools were thawed in RPMI with 10% FBS, spun down and resuspended in 5 mLs of RPMI media. Cells were then counted and equal numbers were combined together on the day of plating to form larger pools of up to ˜100 cell lines.
For drug treatment experiments, cell line pools were cultured in RPMI containing 10% fetal bovine serum, in the absence of phenol red and penicillin/streptomycin. Cell line pools were validated as Mycoplasma free prior to initiating the experiment. Cell line pools were plated at 200,000 cells per well in 6 well plates containing 2 mL of RPMI culture media described above. […] Cell pools were plated ˜16-20 hours prior to drug treatment. Cells were treated with the described drugs or vehicle (DMSO) with a 0.2% final media DMSO concentration.
Generally cells were harvested after drug treatment using standard cell culture methods. Briefly, after drug treatment cells that were in suspension (presumably containing dead cells from drug treatment) were collected and reserved for addition to the adherent cell fraction. Adherent cells were washed once with 1×PBS, trypsinized in 1 mL trypsin, incubated for 3-7 minutes at 37 C, and then trypsin inactivated with 1 mL growth media. For Cell Hashing, cells were treated with TrypLE Express (ThermoFisher) instead of trypsin to reduce the amount of cell surface proteins digested that may affect the binding of Cell Hashing antibodies.
After trypsinization, adherent and suspension cells were combined for each treatment, pelleted, and resuspended in Cell Capture Buffer (lx PBS with 0.04% BSA). Cells were counted (including trypan blue non-viable cells) and resuspended at a concentration of 1,000 cells per microliter for standard loading on the Chromium Controller (10× Genomics), or at 1,500 cells per microliter for “super loaded” samples. Up to 40,000 cells were loaded per 10× channel for “super loaded” samples, with expected recovery of up to 20,000 cells per channel. Cell suspensions were captured on a 10× Chromium controller using Single Cell 3′ reagent chemistries (either version 2 or and version 3 reagents) FIG. 26.
Sequencing data were processed using 10× Cell Ranger software, run using the Cumulus cloud-based analysis framework (Li et al. 2019). Initial experiments were done with 10× Single Cell 3′ v2 chemistry, and were processed using version 2 of the Cell Ranger software. In later experiments v3 chemistry and the corresponding version 3 of Cell Ranger were used. Reads were aligned to the hg19 reference genome.
To estimate the average transcriptional response of each cell line to a perturbation, the data were first ‘sum-collapsed’—summing read counts across cells for each cell line and treatment condition—to produce a bulk RNA-seq style read counts profile for each sample (Crowell et al. 2019; Lun & Marioni 2017). […]

[2] = system: pools of cancer cell lines; assay: Relative cell line abundance estimated from pooled scRNA-seq; format: cell-based, human; details: particularly 24 hours post-treatment
Excerpt: Estimates of the effects of perturbations on relative cell line abundance were obtained by counting the number of (QC-passing) single cells from each cell line in each treatment condition, adding a ‘pseudo-count’ of 1, and normalizing counts across cell lines per condition. These relative abundance estimates were averaged across samples for each treatment condition to compute the log2-fold-change difference between drug-treated and control relative cell line abundances.
For selective compounds, cell cycle effects were also well-correlated with measured viability effects, such that drugs typically had larger effects in more sensitive cell lines (FIG. 18).

[3] = system: cancer cell lines; details: GDSC and PRISM drug sensitivity data; cited from earlier work
[4] = system: pool of 24 cell lines; assay: Trametinib time course: MIX-Seq combined with Cell Hashing; format: cell-based, human
Experimental: For the trametinib time course experiment, cells were treated with trametinib with a staggered dosing schedule so all timepoints could be collected simultaneously. Cells were plated 19 hours prior to the first drug treatment, corresponding to the 48 hour time point. Cells were harvested for 10× capture ˜67 hours after initial seeding.
Cell Hashing (Stoeckius et al., 2018) was performed using the cell harvest method described above with the following changes. All steps were performed on ice. Harvested cells were resuspended in Cell Hashing Staining Buffer (lx PBS with 2% BSA and 0.02% Tween) prior to cell counting. Samples were counted in duplicate with two technical replicates by Countess (Life Technologies) to estimate total cell number. Up to 1,000,000 cells (range 3e5-1e6 cells) were resuspended in 100 microliters of Cell Hashing Staining Buffer. Cells were blocked with 10 microliters of Human TruStain FcX blocking solution (BioLegend) for 10 minutes at 4° C. 100 microliter cell suspensions in Cell Hashing Staining Buffer were then incubated with 2 μL of the appropriate BioLegend TotalSeq™-A Hashing antibody A Hashing antibody (a 1:50 dilution, using a total of 1 μg of antibody per cell suspension). TotalSeq™-A anti-human Hashtag antibodies #4-10 and 12-15 (product codes: 394607, 394609, 394611, 394613, 394615, 394617, 394619, 394623, 394625, 394627, 394629) were used. Cells were washed three times with 0.5 mL of Cell Hashing Staining Buffer and filtered through low volume 40 μm cell strainers (Flowmi). All cell suspensions were recounted to achieve a uniform concentration of 1,500 cells per microliter before pooling for 10× capture. A detailed general protocol is available (www.protocols.io/private/4AC0F6594480B498D8B60EAF6F518E66).
Classification of single-cell treatment conditions, as well as doublet classification, from the hashtag read counts data were performed using DemuxEM (Gaublomme et al. 2019), with default parameters.
The same approach described above was used to estimate the viability-related and viability-independent components of the response at each time point post-trametinib treatment. As substantial transcriptional changes across time points after DMSO-treatment were not observed […], data across DMSO conditions was pooled for analysis.
Leveraging this, responses of a pool of 24 cell lines to trametinib were measured along five time points, ranging from 3 to 48 hours post-treatment, using Cell Hashing to multiplex treatment conditions (FIG. 5A). As controls, DMSO-treated samples were included at each of the 5 time points, in addition to untreated samples, for a total of 11 conditions. Hashtag reads provided robust labeling of treatment conditions, with good tagging efficiency across all cell lines (FIGS. 21A and 21B). Since substantial differences in DMSO-treated cells were not observed across time points (FIG. 22), they were pooled together for subsequent analysis, yielding a total of 13,713 clearly-tagged single cells across all treatment conditions and cell lines.

[5] = system: pools of cancer cell lines; assay: Single-cell heterogeneity analysis of drug responses (clustering of scRNA-seq profiles); format: cell-based, human; details: lung cell line IALM, 24 hours post-treatment
Excerpt: Specifically, the edgeR quasi-likelihood approach was used (Lun et al. 2016), following the pipeline in Soneson et al. 2018, with the cell detection rate (the fraction of genes with non-zero reads detected) included as a covariate.
To identify subpopulations of bortezomib treated cells (FIGS. 4D-4F), Seurat's default methods were used to normalize the data, detect variable genes, and compute PCs (using 5000 most variable genes, and 50 PCs). Seurat's default clustering methods were then used to cluster cells for each cell line (using the 20 nearest neighbors, and a clustering resolution parameter of 0.25).
To identify sub-populations of cells from a given cell line in a consistent fashion across baseline and treatment conditions (for analysis and presentation in FIG. 19), the following procedure was employed. After restricting to cells from the target cell line, the scTransform method (Hafemeiester et al. 2019) was used to normalize the data, identify 5,000 variable genes, and regress out experimental condition as a covariate to align clusters across conditions. Seurat's default clustering methods (using the top 10 PCs, 20 nearest neighbors, and a clustering resolution parameter of 0.25) were then used to identify clusters jointly across treated and control cells.

[6] = 99 cell-line pool, 24 hours post-treatment
[7] = integrating across all cell lines

Row | SMILES | robust transcriptional response signature ([1]; 6 and/or 24 hours post-treatment) | drug-induced change in relative cell abundance versus measured drug sensitivity [2] | long-term viability response across cell lines [3] | viability-independent response component (β0) [1, 6] | viability-related response component (β1) [1, 6] | EGR1 expression ([4]; 3 hours after treatment, sensitive cell line RCM1 and insensitive line TEN) | time at which viability-independent down-regulation of the KRAS signaling pathway emerged [4, 7] | time at which viability-related down-regulation of cell cycle genes started [4, 7] | time of maximal down-regulation of viability-independent genes such as EGR1 and DUSP6 [4, 7] | MCMI expression ([4]; sensitive line RCM1 vs insensitive line TEN, time course 3 to 48 hours) | time of selective down-regulation of GINS2, E2F1 and MCM4 in sensitive cell lines ([4]; viability-related response) | difference in response between two baseline subpopulations [5]
1 | Cc1c2c(nn1C)CSCc1cc(n(C)n1)CSc1cc(c3ccccc3c1)OCCCc1c(C(=O)O)n(C)c3c-2c(Cl)ccc13 [AZD5591] | did not produce strong and/or selective transcriptional responses; also recorded: did not produce robust transcriptional response signatures; also recorded: a robust transcriptional response to the drug was not observed | this relationship was observed most strongly | strong selective viability responses |  |  |  |  |  |  |  |  | 
2 | CC(=O)Nc1cccc(-n2c(=O)n(C3CC3)c(=O)c3c(Nc4ccc(I)cc4F)n(C)c(=O)c(C)c32)c1 [trametinib] |  |  |  | strong down-regulation of MAPK signaling genes, including EGR1, ETV4/5, DUSP4/5/6, and SPRY2/4, KRAS signaling pathways, and TNF-alpha signaling, as well as up-regulation of the interferon response | strong down-regulation of cell-cycle processes | dramatically down-regulated | 3 hours after treatment | 24 hours after treatment | 3 hours post-treatment | selectively down-regulated only in the sensitive line RCM1, and only after 12-24 hours post-treatment | 12-24 hours post-treatment | subtle but significant differences
